Where a name gives a salt, the structure may show the parent alone.

We go through 18 compounds from patent US7148229B2, “Sulfonamide substituted xanthine derivatives” (Hoffman-La Roche Inc., priority 2003, dated 2006).

The target of this experiment is T1, recombinant human cytosolic PEPCK (GST-PEPCK) (Homo sapiens, UniProt P35558).
T1 construct: made in house; host or cells: E. coli
T1 sequence (P35558 1-622): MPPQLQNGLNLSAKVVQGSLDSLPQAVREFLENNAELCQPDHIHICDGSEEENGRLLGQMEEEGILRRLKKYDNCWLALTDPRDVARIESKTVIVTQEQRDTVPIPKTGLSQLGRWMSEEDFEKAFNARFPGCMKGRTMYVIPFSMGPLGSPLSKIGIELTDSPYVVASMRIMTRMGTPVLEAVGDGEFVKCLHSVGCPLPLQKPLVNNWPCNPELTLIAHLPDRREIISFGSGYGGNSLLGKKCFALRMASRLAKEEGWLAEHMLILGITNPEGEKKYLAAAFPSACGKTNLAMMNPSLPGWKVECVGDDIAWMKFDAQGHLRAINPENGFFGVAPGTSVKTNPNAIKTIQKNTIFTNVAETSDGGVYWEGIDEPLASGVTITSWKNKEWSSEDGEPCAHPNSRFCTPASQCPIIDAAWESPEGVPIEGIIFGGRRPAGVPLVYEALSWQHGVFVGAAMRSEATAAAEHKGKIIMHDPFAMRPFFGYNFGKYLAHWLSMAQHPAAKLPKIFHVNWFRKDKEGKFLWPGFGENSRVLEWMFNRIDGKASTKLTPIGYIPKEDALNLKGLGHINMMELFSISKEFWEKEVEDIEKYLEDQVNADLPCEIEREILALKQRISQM
Put plainly: PEPCK enzyme assay (coupled to pyruvate kinase / lactate dehydrogenase, absorbance at 340 nm). Format: biochemical. To be noted: in vitro PEPCK enzymatic assay; GTP at 3 fold and OAA at 10 fold Km; final DMSO 10%; room temperature, twenty minutes. On the procedure: E. coli cells expressing GST-PEPCK were suspended in 5 volumes of lysis buffer (50 mM Tris-hydroxymethyl aminomethyl (TRIS), 150 mM sodium chloride (NaCl), 10 mM ethylene-diametetraacetic acid (EDTA), 5 mM dithiothreitol(DTT), 1% Nonidet P-40, pH 7.4) in the presence of protease inhibitors, incubated with lysozyme at 200 micrograms/ml for 30 min. at room temperature, and sonicated 4×30 seconds at 4 degrees C. After centrifugation at 12,000×g for 20 min. to remove insoluble material, the supernatant was loaded onto glutathione Sepharose (Pharmacia), washed with lysis buffer followed by washing with lysis buffer in the absence of NP-40. GST-PEPCK was eluted with the same buffer containing 20 mM glutathione. The eluted protein was concentrated and dialyzed against 25 mM Hepes(N-[2-hydroxyethyl]piperazine-N′[2-ethanesulfonic acid), 150 mM NaCl, 2.5 mM EDTA, 5 mM DTT, 30% glycerol, pH 7.4, and stored at −20° C.
The inhibitory effect of the compounds of the present invention on PEPCK enzymatic activity was determined using recombinant human cytosolic PEPCK, expressed and purified from E.coli as a GST-fusion. Guanosine triphosphate (GTP) and manganese dependent PEPCK enzyme activity catalyzed the decarboxylation of oxalacetate leading to the formation of guanosine diphosphate (GDP) and phosphoenol pyruvate (PEP). This reaction is coupled to pyruvate kinase and lactate dehydrogenase catalyzed reactions and the overall reaction rate determined by measuring the change in absorbance at 340 nm (Chang, H. C. and Lane M. D., J. Biol. Chem. 241:2413–2420, 1966). The following modifications were made to the protocol: 2.5 μg of recombinant, human cytosolic glutathione-S-transferase (GST)-PEPCK was added to a reaction mixture at room temperature which contained 0.3 mM GTP, 0.3 mM oxaloacetate (OAA), 3 mM magnesium chloride (MgCl2), 0.075 mM manganese chloride (MnCl2), 30 mM potassium phosphates (KPO4), pH 7.6, 1 mM dithiothreitol (DTT), 0.2 mM adenosine diphosphate (ADP), 1 mM nicotinamide adenine dinucleotide, reduced form (NADH), 0.9 Units/ml each of pyruvate kinase and lactate dehydrogenase and 1 mg/ml bovine serum albumin (BSA). Test compounds were added such that final concentration of DMSO was 10%. Reactions were run for twenty minutes.
Km values for GTP and OAA were determined according to Michelis-Menton conditions as described in Comish-Bowden (Fundamentals of Enzyme Kinetics, 1995) in essentially the coupled assay conditions described above. […] Test compounds were added to reactions over a range of concentrations and IC50's were calculated from plots of inhibitor concentration versus enzyme rate. This method of determination of IC50 values is equally applicable to calculations based on PEPCK cellular assay.
Broadly, the IC50 is the concentration that gives 50% inhibition. As for `Cc1nn(C)c(Cl)c1S(=O)(=O)Nc1ccc(Cc2nc3c([nH]2)c(=O)n(Cc2ccccc2F)c(=O)n3CC2CC2)cc1` [Example 1, 5-Chloro-1,3-dimethyl-1H-pyrazole-4-sulfonic acid {4-[3-cyclopropylmethyl-1-(2-fluoro-benzyl)-2,6-dioxo-2,3,6,7-tetrahydro-1H-purin-8-ylmethyl]-phenyl}-amide], the IC50 stood at 290 nM. To `Cn1cc(S(=O)(=O)Nc2ccc(Cc3nc4c([nH]3)c(=O)n(Cc3ccccc3F)c(=O)n4CC3CC3)cc2)cn1` [Example 2, 1-Methyl-1H-pyrazole-4-sulfonic acid {4-[3-cyclopropylmethyl-1-(2-fluoro-benzyl)-2,6-dioxo-2,3,6,7-tetrahydro-1H-purin-8-ylmethyl]-phenyl}-amide] belongs 390 nM; to `COc1cccc(S(=O)(=O)Nc2ccc(Cc3nc4c([nH]3)c(=O)n(Cc3ccccc3F)c(=O)n4CC3CC3)cc2)c1` [Example 3, N-{4-[3-Cyclopropylmethyl-1-(2-fluoro-benzyl)-2,6-dioxo-2,3,6,7-tetrahydro-1H-purin-8-ylmethyl]-phenyl}-3-methoxy-benzenesulfonamide], 1200 nM. For `O=c1c2[nH]c(Cc3ccc(NS(=O)(=O)c4cccc(F)c4)cc3)nc2n(CC2CC2)c(=O)n1Cc1ccccc1F` [Example 4, N-{4-[3-Cyclopropylmethyl-1-(2-fluoro-benzyl)-2,6-dioxo-2,3,6,7-tetrahydro-1H-purin-8-ylmethyl]-phenyl}-3-fluoro-benzenesulfonamide], the IC50 stood at 2550 nM.

On to `O=c1c2[nH]c(Cc3ccc(NS(=O)(=O)c4cnc(Cl)c(Br)c4)cc3)nc2n(CC2CC2)c(=O)n1Cc1ccccc1F` [Example 5, 5-Bromo-6-chloro-pyridine-3-sulfonic acid {4-[3-cyclopropylmethyl-1-(2-fluoro-benzyl)-2,6-dioxo-2,3,6,7-tetrahydro-1H-purin-8-ylmethyl]-phenyl}-amide], for which the IC50 is 4580 nM. In the case of `Cc1nn(C)c(Cl)c1S(=O)(=O)Nc1cccc(Cc2nc3c([nH]2)c(=O)n(Cc2ccccc2F)c(=O)n3CC2CC2)c1` [Example 6, 5-Chloro-1,3-dimethyl-1H-pyrazole-4-sulfonic acid {3-[3-cyclopropylmethyl-1-(2-fluoro-benzyl)-2,6-dioxo-2,3,6,7-tetrahydro-1H-purin-8-ylmethyl]-phenyl}-amide], the IC50 is 1100 nM.

In the case of `Cc1nn(C)cc1S(=O)(=O)Nc1ccc(Cc2nc3c([nH]2)c(=O)n(Cc2ccccc2F)c(=O)n3CC2CC2)cc1` [Example 7, 1,3-Dimethyl-1H-pyrazole-4-sulfonic acid {4-[3-cyclopropylmethyl-1-(2-fluoro-benzyl)-2,6-dioxo-2,3,6,7-tetrahydro-1H-purin-8-ylmethyl]-phenyl}-amide], the IC50 stood at 150 nM. For `CC(=O)Nc1nc(C)c(S(=O)(=O)Nc2ccc(Cc3nc4c([nH]3)c(=O)n(Cc3ccccc3F)c(=O)n4CC3CC3)cc2)s1` [Example 10, N-(5-{4-[3-Cyclopropylmethyl-1-(2-fluoro-benzyl)-2,6-dioxo-2,3,6,7-tetrahydro-1H-purin-8-ylmethyl]-phenylsulfamoyl}-4-methyl-thiazol-2-yl)-acetamide], the half-inhibitory concentration (IC50) was found to be 220 nM. As to `Cc1nc(N)sc1S(=O)(=O)Nc1ccc(Cc2nc3c([nH]2)c(=O)n(Cc2ccccc2F)c(=O)n3CC2CC2)cc1` [Example 11, 2-Amino-4-methyl-thiazole-5-sulfonic acid {4-[3-cyclopropylmethyl-1-(2-fluoro-benzyl)-2,6-dioxo-2,3,6,7-tetrahydro-1H-purin-8-ylmethyl]-phenyl}-amide trifluoro-acetic acid salt], the IC50 was found to be 230 nM.

As to `Cc1noc(C)c1S(=O)(=O)Nc1ccc(Cc2nc3c([nH]2)c(=O)n(Cc2ccccc2F)c(=O)n3CC2CC2)cc1` [Example 12, 3,5-Dimethyl-isoxazole-4-sulfonic acid {4-[3-cyclopropylmethyl-1-(2-fluoro-benzyl)-2,6-dioxo-2,3,6,7-tetrahydro-1H-purin-8-ylmethyl]-phenyl}-amide], the IC50 is 790 nM.

Regarding `Cc1nc(S(=O)(=O)Nc2ccc(Cc3nc4c([nH]3)c(=O)n(Cc3ccccc3F)c(=O)n4CC3CC3)cc2)cn1C` [Example 13, 1,2-Dimethyl-1H-imidazole-4-sulfonic acid {4-[3-cyclopropylmethyl-1-(2-fluoro-benzyl)-2,6-dioxo-2,3,6,7-tetrahydro-1H-purin-8-ylmethyl]-phenyl}-amide], the IC50 stood at 340 nM. To `Cn1cnc(S(=O)(=O)Nc2ccc(Cc3nc4c([nH]3)c(=O)n(Cc3ccccc3F)c(=O)n4CC3CC3)cc2)c1` [Example 14, 1-Methyl-1H-imidazole-4-sulfonic acid {4-[3-cyclopropylmethyl-1-(2-fluoro-benzyl)-2,6-dioxo-2,3,6,7-tetrahydro-1H-purin-8-ylmethyl]-phenyl}-amide] belongs 410 nM.

For the compound `CN(C)S(=O)(=O)Nc1ccc(Cc2nc3c([nH]2)c(=O)n(Cc2ccccc2F)c(=O)n3CC2CC2)cc1` [Example 17, N-{4-[3-Cyclopropylmethyl-1-(2-fluoro-benzyl)-2,6-dioxo-2,3,6,7-tetrahydro-1H-purin-8-ylmethyl]-phenyl}-N,N-dimethylsulfamide], the IC50 came to 960 nM.

For `Cc1nn(C)c(Cl)c1S(=O)(=O)N(C)c1ccc(Cc2nc3c([nH]2)c(=O)n(Cc2ccccc2F)c(=O)n3CC2CC2)cc1` [Example 18, 5-Chloro-1,3-dimethyl-1H-pyrazole-4-sulfonic acid {4-[3-cyclopropylmethyl-1-(2-fluoro-benzyl)-2,6-dioxo-2,3,6,7-tetrahydro-1H-purin-8-ylmethyl]-phenyl}-methyl-amide], the IC50 came to 2050 nM. To `O=c1c2[nH]c(Cc3ccc(NS(=O)(=O)c4cccc5cccnc45)cc3)nc2n(CC2CC2)c(=O)n1Cc1ccccc1F` [Example 19, Quinoline-8-sulfonic acid {4-[3-cyclopropylmethyl-1-(2-fluoro-benzyl)-2,6-dioxo-2,3,6,7-tetrahydro-1H-purin-8-ylmethyl]-phenyl}-amide] belongs 450 nM. For `CC(=O)Nc1ccc(S(=O)(=O)Nc2ccc(Cc3nc4c([nH]3)c(=O)n(Cc3ccccc3F)c(=O)n4CC3CC3)cc2)cc1` [Example 20, N-(4-{4-[3-Cyclopropylmethyl-1-(2-fluoro-benzyl)-2,6-dioxo-2,3,6,7-tetrahydro-1H-purin-8-ylmethyl]-phenylsulfamoyl}-phenyl)-acetamide], the IC50 is 6250 nM. For `CCCCn1c(=O)n(Cc2ccccc2)c(=O)c2[nH]c(Cc3ccc(NS(=O)(=O)c4ccc(C)cc4)cc3)nc21` [Example 21, N-[4-(1-Benzyl-3-butyl-2,6-dioxo-2,3,6,7-tetrahydro-1H-purin-8-ylmethyl)-phenyl]-4-methyl-benzenesulfonamide], the IC50 was determined as 7650 nM. The value for `O=c1c2[nH]c(Cc3ccc(NS(=O)(=O)c4cccnc4)cc3)nc2n(CC2CC2)c(=O)n1Cc1ccccc1F` [Example 22, Pyridine-3-sulfonic acid {4-[3-cyclopropylmethyl-1-(2-fluoro-benzyl)-2,6-dioxo-2,3,6,7-tetrahydro-1H-purin-8-ylmethyl]-phenyl}-amide trifluoro-acetic acid salt] was 1950 nM.
